Here are results for 20 compounds from US8088815B2, “Spiroindolinone pyrrolidines” (Hoffman-La Roche Inc., priority 2009, dated 2012).

One may read the IC50 as the concentration that inhibits the measured activity by half.

Each structure is given as a SMILES string.

In the test the target is interaction between p53 and MDM2 proteins (Homo sapiens, UniProt Q00987). Put plainly: HTRF assay of inhibition of the p53-MDM2 interaction (GST-MDM2 / biotinylated p53 peptide). The class given is binding. To be noted: recombinant GST-tagged MDM2 and biotinylated p53 peptide, bsa:0.02%. A general note: TR-FRET usually uses a lanthanide donor and a delayed reading to cut background.
interaction between p53 and MDM2 proteins, sequence (Q00987 whole entry): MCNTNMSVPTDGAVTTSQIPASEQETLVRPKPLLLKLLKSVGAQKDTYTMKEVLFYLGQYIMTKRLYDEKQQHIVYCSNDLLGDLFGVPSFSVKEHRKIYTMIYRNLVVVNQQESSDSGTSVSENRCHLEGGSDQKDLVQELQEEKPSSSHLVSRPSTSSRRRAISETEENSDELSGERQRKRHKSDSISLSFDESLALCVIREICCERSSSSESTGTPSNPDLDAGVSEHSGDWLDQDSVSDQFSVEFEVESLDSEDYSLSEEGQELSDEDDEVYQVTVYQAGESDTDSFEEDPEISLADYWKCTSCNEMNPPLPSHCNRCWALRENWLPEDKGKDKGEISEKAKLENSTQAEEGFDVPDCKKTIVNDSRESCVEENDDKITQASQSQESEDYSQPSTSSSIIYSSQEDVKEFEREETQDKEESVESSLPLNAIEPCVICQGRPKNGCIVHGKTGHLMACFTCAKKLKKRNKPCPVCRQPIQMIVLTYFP
As for `CCOc1cc(C(=O)O)ccc1NC(=O)[C@@H]1N[C@@H](CC(C)(C)C)[C@@]2(C(=O)Nc3cc(Cl)ccc32)[C@H]1c1cccc(Cl)c1F` (racemic) [Example 130, rac-4-{[(2′S,3′R,4′S,5′R)-6-chloro-4′-(3-chloro-2-fluoro-phenyl)-2′-(2,2-dimethyl-propyl)-2-oxo-1,2-dihydro-spiro[indole-3,3′-pyrrolidine]-5′-carbonyl]amino}-3-ethoxy-benzoic acid], the IC50 was 11 nM.

On to `CC(=O)OCC(C)(C)C[C@@H]1N[C@@H](C(=O)Nc2ccc(C#N)cc2)[C@H](c2cccc(Cl)c2F)[C@]12C(=O)Nc1cc(Cl)ccc12` (racemic) [Example 104, acetic acid rac-3-[(2′S,3′R,4′S,5′R)-6-chloro-4′-(3-chloro-2-fluoro-phenyl)-5′-(4-cyano-phenylcarbamoyl)-2-oxo-1,2-dihydro-spiro[indole-3,3′-pyrrolidin]-2′-yl]-2,2-dimethyl-propyl ester], for which the IC50 is 12 nM.

For `CC(C)(C)C[C@@H]1N[C@@H](C(=O)Nc2ccc(C#N)cc2)[C@H](c2ccc(F)c(Cl)c2)[C@]12C(=O)Nc1cc(Cl)ccc12` (racemic) [Example 83, rac-(2′S,3′R,4′R,5′R)-6-chloro-4′-(3-chloro-4-fluoro-phenyl)-2′-(2,2-dimethyl-propyl)-2-oxo-1,2-dihydro-spiro[indole-3,3′-pyrrolidine]-5′-carboxylic acid (4-cyano-phenyl)-amide], the IC50 stood at 34 nM.

With `CC(C)(CO)C[C@@H]1N[C@@H](C(=O)Nc2ccc(C#N)cc2)[C@H](c2cccc(Cl)c2F)[C@]12C(=O)Nc1cc(Cl)ccc12` (racemic) [Example 105, rac-(2′S,3′R,4′S,5′R)-6-chloro-4′-(3-chloro-2-fluoro-phenyl)-2′-(3-hydroxy-2,2-dimethyl-propyl)-2-oxo-1,2-dihydro-spiro[indole-3,3′-pyrrolidine]-5′-carboxylic acid (4-cyano-phenyl)-amide], the 50% inhibitory concentration (IC50) was found to be 13 nM.

Consider `CC(C)(C)C[C@@H]1N[C@@H](C(=O)Nc2ccn(CCO)c(=O)c2)[C@H](c2cccc(Cl)c2F)[C@]12C(=O)Nc1cc(Cl)ccc12` (racemic) [Example 30], for which the IC50 is 14 nM.

In the case of `CC(C)(C)C[C@@H]1N[C@@H](C(=O)Nc2ccc(C(N)=O)cc2F)[C@H](c2cccc(Cl)c2F)[C@]12C(=O)Nc1cc(Cl)cc(F)c12` (racemic) [Example 79, rac-(2′S,3′R,4′S,5′R)-6-chloro-4′-(3-chloro-2-fluoro-phenyl)-2′-(2,2-dimethyl-propyl)-4-fluoro-2-oxo-1,2-dihydro-spiro[indole-3,3′-pyrrolidine]-5′-carboxylic acid (4-carbamoyl-2-fluoro-phenyl)-amide], the half-maximal inhibitory concentration (IC50) was determined as 13 nM.

Turning to `CC(C)(C)C[C@@H]1N[C@@H](C(=O)Nc2ccc(C(N)=O)cc2)[C@H](c2cccc(Cl)c2)[C@]12C(=O)Nc1cc(Cl)ccc12` (racemic) [Example 65A, rac-(2′S,3′R,4′R,5′R)-6-chloro-4′-(3-chloro-phenyl)-2′-(2,2-dimethyl-propyl)-2-oxo-1,2-dihydro-spiro[indole-3,3′-pyrrolidine]-5′-carboxylic acid (4-carbamoyl-phenyl)-amide], the 50% inhibitory concentration (IC50) worked out at 9 nM.

On to `CNc1cc(C(=O)O)ccc1NC(=O)[C@@H]1N[C@@H](CC(C)(C)C)[C@@]2(C(=O)Nc3cc(Cl)ccc32)[C@H]1c1cccc(Cl)c1F` (racemic) [Example 167, rac-4-{[(2′S,3′R,4′S,5′R)-6-chloro-4′-(3-chloro-2-fluoro-phenyl)-2′-(2,2-dimethyl-propyl)-2-oxo-1,2-dihydro-spiro[indole-3,3′-pyrrolidine]-5′-carbonyl]-amino}-3-methylamino-benzoic acid], for which the IC50 was determined as 10 nM.

As to `CN(C)C(=O)c1ccc(NC(=O)[C@@H]2N[C@@H](CC(C)(C)C)[C@@]3(C(=O)Nc4cc(Cl)ccc43)[C@H]2c2cccc(Cl)c2F)cc1` [Example 35, chiral (2′S,3′R,4′S,5′R)-6-chloro-4′-(3-chloro-2-fluoro-phenyl)-2′-(2,2-dimethyl-propyl)-2-oxo-1,2-dihydro-spiro[indole-3,3′-pyrrolidine]-5′-carboxylic acid (4-dimethylcarbamoyl-phenyl)-amide], the 50% inhibitory concentration (IC50) worked out at 5 nM.

Regarding `COc1cc(C(=O)O)c(F)cc1NC(=O)[C@@H]1N[C@@H](CC(C)(C)C)[C@@]2(C(=O)Nc3cc(Cl)ccc32)[C@H]1c1cccc(Cl)c1F` (racemic) [Example 215, rac-4-{[(2′S,3′R,4′S,5′R)-6-chloro-4′-(3-chloro-2-fluoro-phenyl)-2′-(2,2-dimethyl-propyl)-2-oxo-1,2-dihydro-spiro[indole-3,3′-pyrrolidine]-5′-carbonyl]-amino}-2-fluoro-5-methoxy-benzoic acid], the half-inhibitory concentration (IC50) is 11 nM.

Take `CC(C)(C)C[C@@H]1N[C@@H](C(=O)Nc2ccc(C(N)=O)cc2OC(F)(F)F)[C@H](c2cccc(Cl)c2F)[C@]12C(=O)Nc1cc(Cl)ccc12` (racemic) [Example 146, rac-(2′S,3′R,4′S,5′R)-6-chloro-4′-(3-chloro-2-fluoro-phenyl)-2′-(2,2-dimethyl-propyl)-2-oxo-1,2-dihydro-spiro[indole-3,3′-pyrrolidine]-5′-carboxylic acid (4-carbamoyl-2-trifluoromethoxy-phenyl)-amide]: the IC50 is 14 nM.

For `CC(C)(C)C[C@@H]1N[C@@H](C(=O)Nc2ccc(C(N)=O)nc2)[C@H](c2cccc(Cl)c2F)[C@]12C(=O)Nc1cc(Cl)ccc12` (racemic) [Example 183, rac-(2′S,3′R,4′S,5′R)-6-chloro-4′-(3-chloro-2-fluoro-phenyl)-2′-(2,2-dimethyl-propyl)-2-oxo-1,2-dihydro-spiro[indole-3,3′-pyrrolidine]-5′-carboxylic acid (6-carbamoyl-pyridin-3-yl)-amide], the IC50 worked out at 7 nM.

With `COc1cc(S(=O)(=O)N2CCOCC2)ccc1NC(=O)[C@@H]1N[C@@H](CC(C)(C)C)[C@@]2(C(=O)Nc3cc(Cl)ccc32)[C@H]1c1cccc(Cl)c1F` [Example 154, chiral (2′S,3′R,4′S,5′R)-6-chloro-4′-(3-chloro-2-fluoro-phenyl)-2′-(2,2-dimethyl-propyl)-2-oxo-1,2-dihydro-spiro[indole-3,3′-pyrrolidine]-5′-carboxylic acid [2-methoxy-4-(morpholine-4-sulfonyl)-phenyl]-amide], the IC50 came out at 4 nM.

Turning to `COc1cc(NS(C)(=O)=O)ccc1NC(=O)[C@@H]1N[C@@H](CC(C)(C)C)[C@@]2(C(=O)Nc3cc(Cl)ccc32)[C@H]1c1cccc(Cl)c1F` (racemic) [Example 155, rac-(2′S,3′R,4′S,5′R)-6-chloro-4′-(3-chloro-2-fluoro-phenyl)-2′-(2,2-dimethyl-propyl)-2-oxo-1,2-dihydro-spiro[indole-3,3′-pyrrolidine]-5′-carboxylic acid (4-methanesulfonylamino-2-methoxy-phenyl)-amide], the IC50 turned out to be 13 nM.

As for `COc1cc(C(N)=O)ccc1NC(=O)[C@@H]1N[C@@H](CC(C)(C)C)[C@@]2(C(=O)Nc3cc(Br)ccc32)[C@H]1c1cccc(Cl)c1F` (racemic) [Example 119, rac-(2′S,3′R,4′S,5′R)-6-bromo-4′-(3-chloro-2-fluoro-phenyl)-2′-(2,2-dimethyl-propyl)-2-oxo-1,2-dihydro-spiro[indole-3,3′-pyrrolidine]-5′-carboxylic acid (4-carbamoyl-2-methoxy-phenyl)-amide], the half-maximal inhibitory concentration (IC50) worked out at 7 nM.

For the compound `COC(=O)c1ccc(NC(=O)[C@@H]2N[C@@H](CC(C)(C)C)[C@@]3(C(=O)Nc4cc(Br)ccc43)[C@H]2c2cccc(Cl)c2F)c(OC)c1` (racemic) [Example 122, rac-4-{[(2′S,3′R,4′S,5′R)-6-bromo-4′-(3-chloro-2-fluoro-phenyl)-2′-(2,2-dimethyl-propyl)-2-oxo-1,2-dihydro-spiro[indole-3,3′-pyrrolidine]-5′-carbonyl]-amino}-3-methoxy-benzoic acid methyl ester], the IC50 turned out to be 13 nM.

Consider `COc1cc(N2CCOCC2)ccc1NC(=O)[C@@H]1N[C@@H](CC(C)(C)C)[C@@]2(C(=O)Nc3cc(Cl)ccc32)[C@H]1c1cccc(Cl)c1F` (racemic) [Example 143, rac-(2′S,3′R,4′S,5′R)-6-chloro-4′-(3-chloro-2-fluoro-phenyl)-2′-(2,2-dimethyl-propyl)-2-oxo-1,2-dihydro-spiro[indole-3,3′-pyrrolidine]-5′-carboxylic acid (2-methoxy-4-morpholin-4-yl-phenyl)-amide], for which the IC50 stood at 15 nM.

For `COc1cnccc1NC(=O)[C@@H]1N[C@@H](CC(C)(C)C)[C@@]2(C(=O)Nc3cc(Cl)ccc32)[C@H]1c1cccc(Cl)c1F` (racemic) [Example 162, rac-(2′S,3′R,4′S,5′R)-6-chloro-4′-(3-chloro-2-fluoro-phenyl)-2′-(2,2-dimethyl-propyl)-2-oxo-1,2-dihydro-spiro[indole-3,3′-pyrrolidine]-5′-carboxylic acid (3-methoxy-pyridin-4-yl)-amide], the IC50 was 19 nM.

For `COc1cc(OCCO)ncc1NC(=O)[C@@H]1N[C@@H](CC(C)(C)C)[C@@]2(C(=O)Nc3cc(Cl)ccc32)[C@H]1c1cccc(Cl)c1F` (racemic) [Example 192, rac-(2′S,3′R,4′S,5′R)-6-chloro-4′-(3-chloro-2-fluoro-phenyl)-2′-(2,2-dimethyl-propyl)-2-oxo-1,2-dihydro-spiro[indole-3,3′-pyrrolidine]-5′-carboxylic acid [6-(2-hydroxy-ethoxy)-4-methoxy-pyridin-3-yl]-amide], the IC50 was found to be 7 nM.

On to `COc1cc(C#N)ccc1NC(=O)[C@@H]1N[C@@H](CC(C)(C)C)[C@@]2(C(=O)Nc3cc(Cl)ccc32)[C@H]1c1cccc(Cl)c1` (racemic) [Example 66, rac-(2′S,3′R,4′R,5′R)-6-chloro-4′-(3-chloro-phenyl)-2′-(2,2-dimethyl-propyl)-2-oxo-1,2-dihydro-spiro[indole-3,3′-pyrrolidine]-5′-carboxylic acid (4-cyano-2-methoxy-phenyl)-amide], for which the IC50 is 14 nM.
